Entries after “also recorded” stand apart in the source; their conditions may differ.
Assays:
normal human melanocytes = assay: differentiation of normal human melanocytes after continuous or transient hormone exposure (melanin, RNAseq, Western blot); assay type: cell-based; conditions: for melanocyte differentiation state (melanin pigment production) / melanin production after hormone withdrawal: normal human melanocytes; for melanocyte differentiation state (melanin pigment production): hormone or agonist exposure; for melanin production after hormone withdrawal: transient exposure then withdrawal
Experimental: (§1) FIG. 11A: Long-term melanin assay in which normal human melanocytes were transiently treated with progesterone (P4), or estrogen (E2). Subsets of these groups (Red) were treated with an additional transient pulse of P4 at Day 27. Error bars equal the standard deviation of the samples. FIG. 11B: Western blot of melanocyte differentiation markers after a transient, 4-day treatment with either vehicle or estrogen, followed by an 8 day withdraw period. FIG. 11C: Experimental timeline of estrogen or GPER agonist (G-1) pre-treatment of mouse and human melanoma cells, n=5 per group. FIG. 11D: Relative tumor weights of mouse and human melanomas pre-treated with estrogen, * denotes significance by the Mann-Whitney test. FIG. 11E: Relative tumor weights of mouse and human melanomas pre-treated with G-1, * denotes significance by the Mann-Whitney test.
Normal human melanocytes received a pulse-treatment of estrogen—this consisted of 4 days of estrogen treatment followed by an 8 day withdraw.
To test whether pregnancy-associated hormones induce long-lasting changes in melanocyte differentiation that may affect their future susceptibility to transformation, primary human melanocytes were transiently exposed to estrogen or progesterone (FIGS. 11A-11E).
A subset of cells differentiated by transient exposure to estrogen was subsequently treated with progesterone.

human melanocytes = assay: pigment production and differentiation in human melanocytes treated with MSH or afamelanotide (FIG. 9); assay type: cell-based
Source text: FIG. 9 is a set of bar graphs illustrating the finding that MSH (the endogenous equivalent of afamelanotide) and afamelanotide (also known as […] or NDP-α-MSH) increase pigment production (top) and differentiation (bottom) in human melanocytes.

[1] = tested on: mouse and human melanoma cell lines (B16F10, WM46, WM51, WM3702); assay: melanin assay (differentiation) of mouse and human melanoma cell lines in vitro; assay type: cell-based; conditions: estrogen 25 nM E2, G-1 100 nM, vs delivery vehicle
Source text: (§2) FIGS. 4A-4F illustrate the finding that GPER signaling slows proliferation and drives differentiation in mouse and human melanoma. FIG. 4A: 5 day proliferation assay of B16F10, WM46 (BRAF^V600E), WM51 (BRAF^V600E), and WM3702 (NRAS^Q61L) cells treated with estrogen (E2), * denotes significance by a two-tailed T-test, n=3 per group. FIG. 4B: 5 day melanin assay of B16F10, WM46 (BRAF^V600E), WM51 (BRAF^V600E), and WM3702 (NRAS^Q61L) cells treated with E2, * denotes significance by a two-tailed T-test, n=3 per group. FIG. 4C: 5 day proliferation assay of B16F10, WM46 (BRAF^V600E), WM51 (BRAF^V600E) and WM3702 (NRAS^Q61L) cells treated with GPER agonist (G-1), * denotes significance by a two-tailed T-test, n=3 per group. FIG. 4D: 5 day melanin assay of B16F10, WM46 (BRAF^V600E), WM51 (BRAF^V600E), and WM3702 (NRAS^Q61L) cells treated with G-1, * denotes significance by a two-tailed T-test, n=3 per group. FIG. 4E: 3 day proliferation assay of B16F10 cells treated with a dose response of G-1, * denotes significance One-way ANOVA with Tukey's multiple comparison test, n=5 per group. FIG. 4F: Western blot of B16F10 cells treated for 16 hours with a saturating dose response of G-1. […]
(§3) Tumor cell proliferation slowed in both mouse and human melanoma cells following treatment with estrogen or G-1, a specific GPER agonist. […] Cell proliferation and differentiation (melanin production) were measured.

[2] = tested on: Mouse (B16) and human (WM46) melanoma cell lines; assay: tumor formation in mice from melanoma cells pretreated in vitro; assay type: in vivo
Experimental: as §1
Mouse (B16) and human (WM46) cell lines were pretreated with estrogen, G-1, or vehicle in vitro for one week then injected in equal numbers in to the left (vehicle-treated) or right (E2-treated) flank of mice, inducing tumor formation (N=5 mice per group) (FIG. 5). 14-16 days later, mice were imaged and tumors were harvested and weighed.
To test whether transient GPER signaling induces a persistent differentiation state in melanoma cells that affects subsequent tumor growth in vivo, melanoma cells were treated with estrogen, G-1, or vehicle in vitro, and subsequently injected equal numbers of treated cells into host mice (FIG. 11C).

[3] = tested on: mouse and human melanoma cell lines (B16F10, WM46, WM51, WM3702); assay: proliferation assay of mouse and human melanoma cell lines in vitro; assay type: cell-based; conditions: estrogen 25 nM E2, G-1 100 nM, vs delivery vehicle
Source text: as §2, §3

[4] = tested on: histone posttranslational modifications; assay: mass spectrometry of histone posttranslational modifications in estrogen-treated melanocytes; assay type: cell-based, human
Source text: FIG. 16B: Western blot of p-RB, c-Myc, and H3K56ac in melanoma cells after treatment with G-1, HDACi, or in combination. FIG. 16C: Proliferation assay of B16F10 melanoma cells after treatment with G-1, HDACi, or in combination.
To begin to identify the epigenetic changes likely underlying stable melanocyte differentiation after GPER activation, mass spectrometry was used to obtain a global analysis of histone posttranslational modifications in estrogen-treated MC.

CC(=O)[C@H]1CC[C@H]2[C@@H]3CCC4=CC(=O)CC[C@]4(C)[C@H]3CC[C@]12C [progesterone]
melanocyte differentiation state (melanin pigment production) (normal human melanocytes): had opposite effects
melanin production after hormone withdrawal (normal human melanocytes): quickly returned to their baseline level of melanin production

MSH: the endogenous equivalent of afamelanotide (Ac-SYSMEHFRWGKPV-NH2; ends and bridges not checked; UniProt P01189 138-150, looked up)
differentiation (human melanocytes): increase
pigment production (human melanocytes): increase

C[C@]12CC[C@@H]3c4ccc(O)cc4CC[C@H]3[C@@H]1CC[C@@H]2O [estrogen, estradiol]
expression of aggressive melanoma markers such as premelanosome protein (PMEL) (normal human melanocytes; 4 days of treatment followed by an 8 day withdraw, RNAseq): decreased expression
expression of melanocyte differentiation markers (TYR, TRP1, MC1R, MLANA, DCT) (normal human melanocytes; 4 days of treatment followed by an 8 day withdraw, RNAseq, Western blot): maintained upregulated expression of all the major melanocyte differentiation markers; also recorded: stable increases in classic melanocyte differentiation antigens
melanocyte differentiation state (melanin pigment production) (normal human melanocytes): increases melanocyte differentiation state; also recorded: increase the differentiation state of human melanocytes
melanocyte differentiation state (melanin pigment production) (normal human melanocytes; listed as Estrogen): make more pigment; also recorded: increased melanin production
melanin production after hormone withdrawal (normal human melanocytes): stably produced more melanin
differentiation (melanin production) [1]: drove differentiation
inhibition of tumor growth in vivo ([2]; cells pretreated in vitro for one week, injected into flank of mice, tumors weighed 14-16 days later): approximately 3 fold
tumor growth / tumor size from pretreated cells ([2]; melanoma cells pretreated in vitro, equal numbers injected into mice): formed significantly smaller tumors; also recorded: markedly reduced subsequent tumor size; also recorded: inhibits melanoma cell line growth in vivo
melanoma cell proliferation [3]: slowed melanoma cell proliferation
H3K9ac mark [4]: decreased
histone acetylation marks regulated by CBP/P300, including H3K122, H3K23, and H3K18 ([4]; 3 independent biologic replicates): significant increases

Reference: US11369618B2, “Compounds, compositions and methods for prevention and/or treatment of cancer” (THE TRUSTEES OF THE UNIVERSITY OF PENNSYLVANIA, priority 2016, dated 2022)
